From patent publication US5358947A, “Angiotensin II receptor blocking 2,3-substituted pyrazolo[1,5-a]-1,3,5-triazin-4(3H)-ones” (American Cyanamid Company, priority 1993, dated 1994)
Several values for one entry are separate records, joined by “and”; a condition that tells them apart may be missing. Equal values may be shown once.

System: ANGIOTENSIN II (AII) VASOPRESSOR RESPONSE
Experiment: AII Challenge: angiotensin II (AII) vasopressor response in conscious rats
Type: in vivo
Set-up: Response After AII / Change / Average Change: unit not given here
Details: for Response After AII / Change / Control Before AII: individual rat; for Control Before AII: in mmHg (unit assumed); for % Inhibition / Average Change: n = 2
Source text: By administering a compound of this invention to a rat, and then challenging with angiotensin II, a blockage of the vasopressor response is realized.
Conscious Male Okamoto-Aoki SHR, 16-20 weeks old, weighing approximately 330 g are purchased from Charles River Labs (Wilmington, Mass.). Conscious rats are restrained in a supine position with elastic tape. The area at the base of the tail is locally anesthetized by subcutaneous infiltration with 2% procaine. The ventral caudal artery and vein are isolated, and a cannula made of polyethylene (PE) 10-20 tubing (fused together by heat) is passed into the lower abdominal aorta and vena cava, respectively. The cannula is secured, heparinized (1,000 I.U./ml), sealed and the wound is closed. The animals are placed in plastic restraining cages in an upright position. The cannula is attached to s Statham P23Db pressure transducer, and pulsatile blood pressure is recorded to 10-15 minutes with a Gould Brush recorder. (Chan et al., (Drug Development Res., 18:75-94, 1989).
Angiotensin II (human sequence, Sigma Chem. Co., St. Louis, Mo.) of 0.05 and 0.1 ug/kg i.v. is injected into all rats (predosing response.). Then a test compound, vehicle or a known angiotensin II antagonist is administered i.v., i.p. or orally to each set of rats. The two doses of angiotensin II are given to each rat again at 30, 60, 90, 120, 180, 240 and 300 minutes post dosing the compound or vehicle. The vasopressor response of angiotensin II by a compound is calculated using the vasopressor response (increase in systolic blood pressure) of angiotensin II of each rat predosing the compound as 100%. A compound is considered active if at 30 mg/kg i.v. it antagonized at least 50% of the response.

[1] = 10 mg/kg i.v., AII 0.05 mcg/kg, 30 min post dose
[2] = 10 mg/kg i.v., AII 0.05 mcg/kg, 30 min post dose, listed as Ex. 20
[3] = 10 mg/kg i.v., AII 0.1 mcg/kg, 30 min post dose, listed as Ex. 20
[4] = 10 mg/kg i.v., AII 0.1 mcg/kg, 30 min post dose
[5] = 20 mg/kg i.v., AII 0.05 mcg/kg, 60 min post dose
[6] = 20 mg/kg i.v., AII 0.05 mcg/kg, 60 min post dose, listed as Ex. 20
[7] = 20 mg/kg i.v., AII 0.05 mcg/kg, 90 min post dose
[8] = 20 mg/kg i.v., AII 0.05 mcg/kg, 90 min post dose, listed as Ex. 20
[9] = 20 mg/kg i.v., AII 0.05 mcg/kg, 120 min post dose
[10] = 20 mg/kg i.v., AII 0.05 mcg/kg, 120 min post dose, listed as Ex. 20
[11] = 20 mg/kg i.v., AII 0.05 mcg/kg, 180 min post dose
[12] = 20 mg/kg i.v., AII 0.05 mcg/kg, 180 min post dose, listed as Ex. 20
[13] = 20 mg/kg i.v., AII 0.05 mcg/kg, 240 min post dose
[14] = 20 mg/kg i.v., AII 0.05 mcg/kg, 240 min post dose, listed as Ex. 20
[15] = 20 mg/kg i.v., AII 0.05 mcg/kg, 300 min post dose, listed as Ex. 20
[16] = 20 mg/kg i.v., AII 0.05 mcg/kg, 300 min post dose
[17] = 20 mg/kg i.v., AII 0.1 mcg/kg, 60 min post dose
[18] = 20 mg/kg i.v., AII 0.1 mcg/kg, 60 min post dose, listed as Ex. 20
[19] = 20 mg/kg i.v., AII 0.1 mcg/kg, 90 min post dose
[20] = 20 mg/kg i.v., AII 0.1 mcg/kg, 90 min post dose, listed as Ex. 20
[21] = 20 mg/kg i.v., AII 0.1 mcg/kg, 120 min post dose
[22] = 20 mg/kg i.v., AII 0.1 mcg/kg, 120 min post dose, listed as Ex. 20
[23] = 20 mg/kg i.v., AII 0.1 mcg/kg, 180 min post dose
[24] = 20 mg/kg i.v., AII 0.1 mcg/kg, 180 min post dose, listed as Ex. 20
[25] = 20 mg/kg i.v., AII 0.1 mcg/kg, 240 min post dose, listed as Ex. 20
[26] = 20 mg/kg i.v., AII 0.1 mcg/kg, 240 min post dose
[27] = 20 mg/kg i.v., AII 0.1 mcg/kg, 300 min post dose, listed as Ex. 20
[28] = 20 mg/kg i.v., AII 0.1 mcg/kg, 300 min post dose

CCCCc1nc2c(Br)cnn2c(=O)n1Cc1ccc(-c2ccccc2-c2nn[nH]n2)cc1 [Example 20]
Response After AII [1]: 245
Change [2]: 38 and 15
Response After AII [2]: 215
Control Before AII [2]: 207 and 200
% Inhibition [1]: 34%
Average Change [1]: 26.5
Change [3]: 45 and 35
Response After AII [3]: 260 and 235
Control Before AII [3]: 215 and 200
% Inhibition [4]: 36%
Average Change [4]: 40
Change [5]: 20
Response After AII [5]: 200
Response After AII [6]: 215
Control Before AII [6]: 195 and 180
% Inhibition [5]: 50%
Average Change [5]: 20
Response After AII [7]: 200
Change [8]: 10 and 25
Response After AII [8]: 225
Control Before AII [8]: 215 and 175
% Inhibition [7]: 56%
Average Change [7]: 17.5
Response After AII [9]: 250
Change [10]: 45 and 20
Response After AII [10]: 215
Control Before AII [10]: 205 and 195
% Inhibition [9]: 19%
Average Change [9]: 32.5
Response After AII [11]: 210
Control Before AII [11]: 185
Change [12]: 40 and 25
Response After AII [12]: 225
% Inhibition [11]: 19%
Average Change [11]: 32.5
Response After AII [13]: 230
Control Before AII [13]: 185
Change [14]: 45 and 40
Response After AII [14]: 225
% Inhibition [13]: -6%
Average Change [13]: 42.5
Change [15]: 50 and 35
Response After AII [15]: 240 and 235
Control Before AII [15]: 190 and 200
% Inhibition [16]: -6%
Average Change [16]: 42.5
Response After AII [17]: 200
Change [18]: 15 and 20
Response After AII [18]: 215
Control Before AII [18]: 200 and 180
% Inhibition [17]: 72%
Average Change [17]: 17.5
Response After AII [19]: 245
Change [20]: 40 and 30
Response After AII [20]: 215
Control Before AII [20]: 205 and 185
% Inhibition [19]: 44%
Average Change [19]: 35
Response After AII [21]: 250
Change [22]: 35 and 20
Response After AII [22]: 215
Control Before AII [22]: 215 and 195
% Inhibition [21]: 56%
Average Change [21]: 27.5
Response After AII [23]: 225
Change [24]: 30 and 60
Control Before AII [24]: 195 and 165
% Inhibition [23]: 28%
Average Change [23]: 45
Change [25]: 60 and 55
Response After AII [25]: 260 and 245
Control Before AII [25]: 200 and 190
% Inhibition [26]: 8%
Average Change [26]: 57.5
Change [27]: 45 and 55
Response After AII [27]: 265 and 245
Control Before AII [27]: 220 and 190
% Inhibition [28]: 20%
Average Change [28]: 50
